Reference: paper PMC7595621, “Quorum sensing N-Acyl homoserine lactones are a new class of anti-schistosomal” (PLoS Neglected Tropical Diseases, 2020)
≈ marks a conversion by molar mass, not a printed value.

Tests used:
S. mansoni schistosomula = test: Screening of S. mansoni schistosomula (Roboworm, motility and phenotype); type: cell-based, Schistosoma mansoni; conditions: for Selectivity index, schistosomula motility: HepG2 CC50 / schistosomula motility EC50; for Selectivity index, schistosomula phenotype: HepG2 CC50 / schistosomula phenotype EC50; for EC50: Schistosoma mansoni, average across motility and phenotype, read-out: average EC50 for phenotype and motility, schistosomula; for concentrations at which schistosomula phenotype was affected / concentrations at which schistosomula motility was affected: titration 10 to 0.625 μM; for concentrations at which schistosomula phenotype was affected: hit below -0.15; for concentrations at which schistosomula motility was affected: hit below -0.35
Procedure: Biomphalaria glabrata (NMRI and the previously described pigmented strains) snails infected with S. mansoni (Puerto Rican strain) were shed for 2 hrs under light at 26 °C. Cercariae were collected, mechanically transformed into schistosomula and subsequently prepared for high throughput screening (HTS) on the Roboworm platform as previously described. Schistosomula were cultured in Basch Media (composed of BME media, 10% M169 media, 0.5x MEM vitamins, 10% Schneider’s insect media, 15.6mM Hepes, 5% heat inactivated FBS, 2x Antibiotic/anti-mycotic (Sigma-Aldrich, UK) solution (final concentrations shown)).
EC50 values were calculated from the titrated concentrations by non-linear regression, after log transformation of concentrations and data normalization using GraphPad Prism 7.02.
Fig 2 Anti-schistosomula activity of the eight analogues compared to parent compound 1. […] Test plates were incubated at 37°C for 72 hrs in an atmosphere containing 5% CO2. At 72hrs, schistosomula were scored using the Roboworm platform for both motility (A) and phenotype (B). Any compound that induced a score of below -0.35 for motility (A) and -0.15 for phenotype (B) were considered a hit. Black squares indicate the most positive effect on motility or phenotype; grey scale from dark grey to lighter shades of grey indicates a progressive reduced compound efficacy; white squares indicate no effect on either phenotype or motility. Z´ values for this screen was 0.41741 for motility and 0.57275 for phenotype. (C) Phenotypes of schistosomula when treated with 10μM of each of the test compounds and controls.
Supplementary file pntd.0008630.s003.tif: S1 Fig Initial schistosomula screens of the 14 compounds and their intermediate analogues. […] Test plates were incubated at 37°C for 72 hrs in an atmosphere containing 5% CO2. At 72hrs, schistosomula were scored using the Roboworm platform for both motility and phenotype as previously described. A) Of the 14 compounds evaluated, two fell within the hit region. Z’ scores for motility and phenotype were 0.40079 and 0.56846 respectively. […] Z´ scores for motility and phenotype were 0.37864 and 0.47882 respectively. *Average EC50 value across motility and phenotype is presented for each compound. (TIF) Click here for additional data file.

E. coli ATCC 25922 = test: Broth microdilution MIC and IC50 determination, E. coli; type: cell-based; conditions: Escherichia coli; for MIC: ATCC25922, 24 h, 24 hr
Procedure: (§1) S. aureus ATCC 29213 and E. coli ATCC 25922 were cultured in Luria-Bertani (LB) medium at 37°C with aeration at 200 rpm for 24 hr, with all procedures performed in a biosafety level 2 (BSL2) cabinet. Stationary phase cultures were then used for minimum inhibitory concentration (MIC) determination using the broth microdilution method, in fresh LB medium, in a 96-well plate. All compounds were tested in triplicate using an initial bacterial concentration of 5.0 × 10^5 colony forming units (CFU)/mL at a final concentration of 125 mg/L (5% and 2.5% v/v methanol). Compounds with no visible growth at 125 mg/L were further evaluated with progressing dilutions. […] Dilutions were repeated in three independent experiments where the optical density (OD600) was measured in a Hidex plate spectrophotometer and absorbance data used for the calculation of an IC50 value. The IC50 value was obtained from a dose response titration (125–0.09 mg/L). Dose response curves were obtained by non-linear regression, after log transformation of concentrations and data normalization using GraphPad Prism 7.02.
(§2) As Compound 1 was structurally similar to N-acyl homoserine lactones, a compound class involved in bacterial quorum sensing, we decided to assess its antimicrobial activity and determine if enantiomer separation or lactone ring substitution would change this activity.

[1] = test system: juvenile S. mansoni worms; test: Screening of juvenile S. mansoni blood flukes (3-week worms), motility scoring; type: cell-based, Schistosoma mansoni; conditions: for Selectivity index, juvenile worm: HepG2 CC50 / juvenile worm EC50; for EC50: Schistosoma mansoni, 3-week worms, motility scores, read-out: JUVENILE WORM EC50
Procedure: Juvenile S. mansoni parasites were recovered via hepatic portal vein perfusion from TO outbred mice (HsdOla:TO, Tuck-Ordinary, Envigo, UK) that were infected percutaneously three weeks earlier with 4000 cercariae. Preparation and centrifugation of juvenile worms have been described previously. […] After motility quantification, 2 μg/mL of PI was added to each well and the plate returned to 37°C, 5% CO2 for 15 minutes. Each well was subsequently imaged on the Roboworm platform using brightfield and fluorescent microscopy (excitation wavelength = 580 nm; emission wavelength = 604 nm). The number of PI positive vs PI negative juvenile worms were cross-checked with the motility scores obtained by our scoring matrix, and the data reported as percentage of PI positive across all parasites within the well. EC50 values were calculated from the motility scores obtained from the dose response titration (as detailed above) and dose response curves were obtained by non-linear regression, after log transformation of concentrations and data normalization using GraphPad Prism 7.02.
Fig 4 Three week juvenile worms are immobilised by N-Acyl homoserine lactones. Three-week old juvenile S. mansoni worms (n = 13–33 per well) were co-cultured with compounds (1) and (3) at concentrations spanning 15 μM—0.23 μM for 72 hrs at 37°C in a humidified atmosphere containing 5% CO2. Parasite motility was scored between 0–4 (0 = no movement/dead, 4 = full movement/healthy). […] A) Effect of compound (1) on juvenile worm motility. (B) Effect of compound (3) on juvenile worm motility. p values are indicated as follows: * <0.05, ** <0.01, *** <0.001.

S. aureus ATCC 29213 = test: Broth microdilution MIC and IC50 determination, S. aureus; type: cell-based, Staphylococcus aureus; conditions: for MIC: ATCC29213, 24 h
Procedure: as §1, §2

[2] = Staphylococcus aureus, 24 hr, no visible growth
[3] = Staphylococcus aureus, value in square brackets, 24 hr

| Structure (SMILES) | effect on schistosomula motility and phenotype metrics in initial screen (S. mansoni schistosomula; 10 μM, 72 hrs) | Selectivity index, schistosomula motility (S. mansoni schistosomula) | Selectivity index, schistosomula phenotype (S. mansoni schistosomula) | EC50 (S. mansoni schistosomula; 72 hrs) | concentrations at which schistosomula phenotype was affected (S. mansoni schistosomula; 72 hrs) | concentrations at which schistosomula motility was affected (S. mansoni schistosomula; 72 hrs) | good compound effect on schistosomula observed down to a concentration (S. mansoni schistosomula; titration of initial hits, S1B Fig) | MIC (E. coli ATCC 25922; no visible growth) | MIC (E. coli ATCC 25922; value in square brackets) | significant effect on juvenile worm motility down to ([1]; 72 hr) | Selectivity index, juvenile worm [1] | EC50 ([1]; 72 hr) | MIC (S. aureus ATCC 29213; [2]) | MIC (S. aureus ATCC 29213; [3]) | IC50 (E. coli ATCC 25922; ATCC25922, Table 3, OD600, three independent experiments, 95% confidence interval in parentheses) | complete immobility of juvenile worms observed down to ([1]; 72 hr) | S. aureus MIC (S. aureus ATCC 29213; 24 hr, no visible growth) | IC50 (S. aureus ATCC 29213; Staphylococcus aureus, ATCC29213, Table 3, OD600, three independent experiments, 95% confidence interval in parentheses) |
| --- | --- | --- | --- | --- | --- | --- | --- | --- | --- | --- | --- | --- | --- | --- | --- | --- | --- | --- |
| O=C(CBr)NC1CCOC1=O (centres unmarked) [Compound 1, 2-bromo-N-(2-oxotetrahydrofuran-3-yl)acetamide] | negatively affected both schistosomula motility and phenotype metrics | 11.5 | 7.9 | 4.7 µM | from 10 to 1.25 | all concentrations tested | 1.25 µM | 125 µg/mL | 563 µM | 7.5 µM | 10.1 | 4.3 µM | 125 µg/mL | 563 µM |  |  |  |  |
| O=C(CBr)NC1CCSC1=O (centres unmarked) [Compound 3, 2-bromo-N-(2-oxotetrahydrothiophen-3-yl)acetamide] |  | 9.8 | 8.1 | 2.1 µM | all concentrations tested | all concentrations tested |  | 62.5 µg/mL | 262 µM |  | 37.4 | 0.5 µM | 31.2 µg/mL | 131 µM | 52.7 µg/mL (≈ 221 µM) | 0.94 µM | 31.3 µg/mL | 25.9 µg/mL (≈ 109 µM) |
